From patent US5723468A, “6-membered ring fused imidazoles as muscarinic agents” (priority 1996, dated 1998)

How the values were obtained:
[1] = biological target: T1, M1 acetylcholine receptors (ml receptors in CHO cells) (Homo sapiens, UniProt P11229); assay: stimulation of phosphoinositide (PI) hydrolysis in transfected CHO cells; type: cell-based; conditions: 1 h, read-out: % PI Hydrolysis ml receptors in CHO cells 30 × Ki (μM), carb = 100%
T1 sequence (P11229 1-460): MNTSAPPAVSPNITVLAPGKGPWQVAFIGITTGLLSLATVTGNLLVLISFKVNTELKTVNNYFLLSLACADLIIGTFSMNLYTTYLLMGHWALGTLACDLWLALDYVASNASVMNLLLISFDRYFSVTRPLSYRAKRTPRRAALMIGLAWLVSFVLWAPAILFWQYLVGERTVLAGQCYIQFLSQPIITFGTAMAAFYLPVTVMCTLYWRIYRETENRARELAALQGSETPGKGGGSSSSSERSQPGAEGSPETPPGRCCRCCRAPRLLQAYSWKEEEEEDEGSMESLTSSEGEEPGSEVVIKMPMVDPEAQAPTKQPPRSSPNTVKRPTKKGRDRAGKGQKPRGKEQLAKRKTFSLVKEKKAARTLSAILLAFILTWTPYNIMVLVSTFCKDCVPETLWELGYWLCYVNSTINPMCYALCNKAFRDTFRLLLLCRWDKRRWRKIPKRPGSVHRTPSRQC

[2] = system: mild to moderate Alzheimer's Disease; conditions: cited from earlier work; for improvement in memory: patients with mild to moderate Alzheimer's Disease

SMILES | Emax [1] [%] | adverse side effects ([2]; especially at the higher doses where it is most effective) | improvement in memory [2]
Cn1cnc2c(O[C@@H]3CN4CC[C@H]3C4)nccc21 (relative stereo) [Example 1, endo-4-(1-Aza-bicyclo[2.2.1]hept-3-yloxy)-1-methyl-1H-imidazol[4,5-c]pyridine] | 25 | – | –
c1ccc(Cn2cnc3c(OC4CN5CCC4CC5)nccc32)cc1 (single isomer, unassigned; (-)) [Example 7, (-)-3-(1-Benzyl-1H-imidazol[4,5-c]pyridin-4-yloxy)-1-aza-bicyclo[2,2,2]octane] | 18.4 | – | –
c1ccc(Cn2cnc3c(OC4CN5CCC4CC5)nccc32)cc1 (stereo not shown) [Example 5, 3-(1-Benzyl-1H-imidazo[4,5-c]pyridin-4-yloxy)-1-aza-bicyclo[2,2,2]octane] | 6.8 | – | –
Nc1c2c(nc3ccccc13)CCCC2 [tacrine] | – | adverse side effects especially at the higher doses | improvement in memory can be shown in patients with mild to moderate Alzheimer's Disease
Cn1cnc2c(O[C@@H]3CN4CC[C@H]3C4)nccc21 (single isomer, unassigned) [Example 3, (-)-endo-4-(1-Aza-bicyclo[2.2.1]hept-3-yloxy)-1methyl-1H-imidazol[4,5-c]pyridine] | 20.6 | – | –
COC(=O)C1=CCCN(C)C1 [arecoline] | – | – | demonstrated memory improvement in patients with mild to moderate Alzheimer's Disease
